# US20210221812A1, “MATRINE a-KETOAMINE COMPOUNDS, PREPARATION METHOD THEREFOR AND USE THEREOF” (SHANGHAI XINGYE PHARMACEUTICAL TECHNOLOGY CO., LTD, priority 2018, published 2021)
# Like-named read-outs stand apart in the source and are kept apart here.
# Assays:
# [1] = system: Lovo cells; assay: Anti-tumor activity of NK cells activated by compounds, Lovo (CFSE/PI flow cytometry); format: cell-based; conditions: Homo sapiens, tumor cells treated with 20 μM compound 48 h, then mixed with NK cells 5:1 for 4 hours, CFSE+PI+ tumor cells, read-out: Lovo inhibition rate (%)
# Method: (§1) Logarithmic growth phase of Lovo, HpeG-2, A549, k562, Panc-1 cells were collected and seeded in a 6-well plate at a density of 5×10^5/mL and 2 mL/well separately. The experimental group was treated with 20 μM final drug concentration of GJDx compounds, and the control group was treated with an equal volume of RPMI1640 medium. The groups were cultured at 37° C., saturated humidity, 5% CO2 for 48 h. After that, the cells of each group were collected, centrifuged and the supernatant was removed and resuspended in PBS at a density of 1×10^6/mL. Then 2 μL of CFSE stock solution (final concentration was 10 μM) was added into the cell suspension per 1 mL and cultured at 37° C. with 5% CO2 for 30 min, and then added 5-10 times of the volume of 4° C. pre-chilled RPM 1640 complete medium, and incubated on ice for 5 minutes, discarded the supernatant by centrifugation at 4° C., and wash the cells with fresh medium for 3 times. After that, mixing the labeled tumor cells and NK cells (the NK cell culture medium was α-MEM contained 1.5 g/L sodium bicarbonate, 12.5% fetal bovine serum, and 12.5% horse serum) according to the ratio of 5:1, the mixture cells was collected and washed with flow buffer twice after incubated for 4 hours, then 50 μg/mL PI was added, and incubated at room temperature for 15 minutes in the dark, and finally testing the percentage of CFSE^+PI^+ tumor cells on the flow cytometer.
# [2] = system: HpeG-2 cells; assay: Anti-tumor activity of NK cells activated by compounds, HpeG-2 (CFSE/PI flow cytometry); format: cell-based; conditions: tumor cells treated with 20 μM compound 48 h, then mixed with NK cells 5:1 for 4 hours; CFSE+PI+ tumor cells; read-out: HpeG-2 inhibition rate (%)
# Method: as §1
# [3] = system: A549 cells; assay: Anti-tumor activity of NK cells activated by compounds, A549 (CFSE/PI flow cytometry); format: cell-based; conditions: Homo sapiens, tumor cells treated with 20 μM compound 48 h, then mixed with NK cells 5:1 for 4 hours, CFSE+PI+ tumor cells, read-out: A549 inhibition rate (%)
# Method: as §1
# [4] = system: k562 cells; assay: Anti-tumor activity of NK cells activated by compounds, k562 (CFSE/PI flow cytometry); format: cell-based; conditions: Homo sapiens, tumor cells treated with 20 μM compound 48 h, then mixed with NK cells 5:1 for 4 hours, CFSE+PI+ tumor cells, read-out: k562 inhibition rate (%)
# Method: as §1
# [5] = system: Panc-1 cells; assay: Anti-tumor activity of NK cells activated by compounds, Panc-1 (CFSE/PI flow cytometry); format: cell-based; conditions: Homo sapiens, tumor cells treated with 20 μM compound 48 h, then mixed with NK cells 5:1 for 4 hours, CFSE+PI+ tumor cells, read-out: Panc-1 inhibition rate (%)
# Method: as §1
# [6] = system: Lovo cells; assay: MTT tumor cell growth inhibition, Lovo; format: cell-based; conditions: 48 h, read-out: Tumors growth-inhibitory activity (IC50) Lovo
# Method: (§2) Using MTT method to determine the growth inhibition activity of the matrine compounds on Lovo, MGC-803, Mia-paca2, HpeG-2, A549, k562, and Panc-1 cells in vitro. Logarithmic growth phase of Lovo, MGC-803, Mia-paca2, HpeG-2, A549, k562, Panc-1 cells were inoculated into 96-well plates (purchased from Institute of Biochemical Cells, Chinese Academy of Sciences, and cultured according to conventional tumor cell culture methods) at a density of 4×10^4/mL and 180 μL/well; after the cells adhered to the wall, 20 μL of drug solution was added to each well and matined the final drug concentrations were 0.1 μM, 1 μM, 10 μM, 50 μM, 100 μM respectively. After 48 h, 5 mg/mL MTT solution was added (20 μL/well) and maintained in a CO2 incubator for 3-4 h. After that, discarding the supernatant carefully, and DMSO was added (200 μL/well) when the residual liquid was air-dried, and shook for 0.5-1 h until the residual crystals was dissolved. The absorbance OD was measured at 492 nm by a microplate reader. GraphPad Prism 5 software was used to calculate the IC50 value.
# [7] = system: MGC-803 cells; assay: MTT tumor cell growth inhibition, MGC-803; format: cell-based; conditions: 48 h, read-out: Tumors growth-inhibitory activity (IC50) MGC-803
# Method: as §2
# [8] = system: Mia-paca2 cells; assay: MTT tumor cell growth inhibition, Mia-paca2; format: cell-based; conditions: read-out: Tumors growth-inhibitory activity (IC50) Mia-paca2
# Method: as §2
# [9] = system: HpeG-2 cells; assay: MTT tumor cell growth inhibition, HpeG-2; format: cell-based; conditions: 48 h, read-out: Tumors growth-inhibitory activity (IC50) HpeG-2
# Method: as §2
# [10] = system: k562 cells; assay: MTT tumor cell growth inhibition, k562; format: cell-based; conditions: 48 h, read-out: Tumors growth-inhibitory activity (IC50) k562
# Method: as §2
# [11] = system: A549 cells; assay: MTT tumor cell growth inhibition, A549; format: cell-based; conditions: 48 h, read-out: Tumors growth-inhibitory activity (IC50) A549
# Method: as §2
# [12] = system: Panc-1 cells; assay: MTT tumor cell growth inhibition, Panc-1; format: cell-based; conditions: 48 h, read-out: Tumors growth-inhibitory activity (IC50) Panc-1
# Method: as §2
# [13] = system: TNF-α; assay: TNF-α activity inhibiting assay (LPS-stimulated peripheral blood, ELISA); format: cell-based, human; conditions: compound 20 μM, LPS 10 ng/mL, 6 hours, diluted peripheral blood of healthy volunteers; for inhibition at 20 µM: Homo sapiens, read-out: TNF-α inhibition rate (%)
# Method: Methods: Peripheral blood from healthy volunteers was collected with EDTA anticoagulant tubes. After being diluted 5-fold with 1640 medium (Gibco, USA), the blood was added to 96-well cell culture plates (Costar, USA) and then treated with 10 μL solution of the compound of general formula (I) of the present invention in DMSO (Sigma, USA), the final concentration of the compound was 20 μM with the final concentration of DMSO was 0.2%. After incubation for 60 minutes in an incubator at 37° C. under 5% CO2, 10 μL LPS (Sigma, USA) was added to the reaction system, and the final concentration was 10 ng/mL. After further culturing for 6 hours in the incubator at 37° C. under 5% CO2, the supernatant was collected. The content of TNF-α was determined by ELISA (BD Biosciences, USA). Absorbance was detected at OD450 nm with a microplate reader, with OD 650 nm as reference. The control, a solution containing 0.2% DMSO medium, was as 0% inhibition. Raw data and standard curves were recorded. The four-parameter drug inhibition curve was plotted by XL-fit software and the inhibition rate of each compound was calculated.
Structure (SMILES),inhibition at 20 µM [1] [%],inhibition at 20 µM [2] [%],inhibition at 20 µM [3] [%],inhibition at 20 µM [4] [%],inhibition at 20 µM [5] [%],IC50 ([6]; Homo sapiens) [µM],IC50 ([7]; Homo sapiens) [µM],"IC50 ([8]; Homo sapiens, MIA PaCa-2, 48 h) [µM]",IC50 [9] [µM],IC50 ([10]; Homo sapiens) [µM],IC50 ([11]; Homo sapiens) [µM],IC50 ([12]; Homo sapiens) [µM],inhibition at 20 µM [13] [%],TNF-α inhibition rate (%) [13] [%],IC50 [6] [µM],IC50 [7] [µM],IC50 ([8]; 48 h) [µM],IC50 [10] [µM],IC50 [11] [µM],IC50 [12] [µM]
O=C1c2cccnc2C(=O)N1C1CC[C@@H]2[C@H]3CCCN4CCC[C@@H](CN2C1=O)[C@@H]34 (stereo partly shown) [GJD 15],> 50,> 50,> 50,< 50,> 50,–,–,–,–,–,–,–,–,–,–,–,–,–,–,–
O=C(NC1CC[C@@H]2[C@H]3CCCN4CCC[C@@H](CN2C1=O)[C@@H]34)c1cc(Cl)ccc1O (stereo partly shown) [GJD 55],< 50,< 50,< 50,< 50,> 50,50 to 100,> 100,50 to 100,< 50,50 to 100,< 50,50 to 100,–,–,–,–,–,–,–,–
O=C1c2cccc(C(F)(F)F)c2C(=O)N1C1CC[C@@H]2[C@H]3CCCN4CCC[C@@H](CN2C1=O)[C@@H]34 (stereo partly shown) [GJD 07],> 50,> 50,< 50,> 50,> 50,< 50,50 to 100,50 to 100,50 to 100,50 to 100,> 100,50 to 100,> 50,–,–,–,–,–,–,–
O=C1c2ccccc2C(=O)N1C1CC[C@@H]2[C@H]3CCCN4CCC[C@@H](CN2C1=O)[C@@H]34 (stereo partly shown) [GJD 01],≥ 50,> 50,> 50,< 50,< 50,50 to 100,> 100,> 100,50 to 100,50 to 100,50 to 100,> 100,≥ 50,–,–,–,–,–,–,–
Nc1cccc2c1C(=O)N(C1CC[C@@H]3[C@H]4CCC[N+]5([O-])CCC[C@@H](CN3C1=O)[C@@H]45)C2=O (stereo partly shown) [GJD 63],> 50,> 50,> 50,> 50,> 50,–,–,–,–,–,–,–,–,–,–,–,–,–,–,–
O=C(NC1CC[C@@H]2[C@H]3CCCN4CCC[C@@H](CN2C1=O)[C@@H]34)c1ccc(OC(F)F)c(OCC2CC2)c1 (stereo partly shown) [GJD 52],–,–,–,–,–,50 to 100,50 to 100,50 to 100,< 50,50 to 100,< 50,50 to 100,> 50,–,–,–,–,–,–,–
CC(=O)Oc1ccccc1C(=O)NC1CC[C@@H]2[C@H]3CCCN4CCC[C@@H](CN2C1=O)[C@@H]34 (stereo partly shown) [GJD 51],< 50,> 50,< 50,< 50,< 50,–,–,–,–,–,–,–,–,–,–,–,–,–,–,–
O=C1[C@H](N2C(=O)c3ccccc3C2=O)CC[C@@H]2[C@H]3CCCN4CCC[C@@H](CN12)[C@@H]34 [GJD 26],> 50,> 50,> 50,> 50,> 50,–,–,–,–,–,–,–,–,–,–,–,–,–,–,–
O=C1c2ccccc2CN1C1CC[C@@H]2[C@H]3CCCN4CCC[C@H](CN2C1=O)[C@@H]34 (stereo partly shown) [GJD 42],> 50,> 50,> 50,< 50,< 50,–,–,–,–,–,–,–,–,–,–,–,–,–,–,–
"O=C1CCC[C@@H]2[C@H]3CCCN4CCC[C@@H](CN12)[C@@H]34 [Matrine, matrine]",–,–,–,–,–,50 to 100,> 100,> 100,50 to 100,> 100,> 100,> 100,< 50,–,–,–,–,–,–,–
O=C1c2cccc([N+](=O)[O-])c2CN1C1CC[C@@H]2[C@H]3CCCN4CCC[C@@H](CN2C1=O)[C@@H]34 (stereo partly shown) [GJD 31],> 50,> 50,> 50,> 50,≥ 50,–,–,–,–,–,–,–,–,–,–,–,–,–,–,–
O=C1c2cccc([N+](=O)[O-])c2C(=O)N1C1CC[C@@H]2[C@H]3CCC[N+]4([O-])CCC[C@@H](CN2C1=O)[C@@H]34 (stereo partly shown) [GJD 66],–,–,–,–,–,–,–,–,< 50,–,–,–,–,<50,< 50,50 to 100,50 to 100,< 50,< 50,< 50
N#Cc1cccc2c1C(=O)N(C1CC[C@@H]3[C@H]4CCCN5CCC[C@@H](CN3C1=O)[C@@H]45)C2=O (stereo partly shown) [GJD 06],–,–,–,–,–,50 to 100,> 100,50 to 100,< 50,50 to 100,50 to 100,50 to 100,> 50,–,–,–,–,–,–,–
